Like-named read-outs stand apart in the source and are kept apart here.
Key:
Rat PMNL = test: Myeloperoxidase (MPO) release from stimulated PMNL; type: cell-based; details: for inhibition at 1 µM / inhibition at 3 µM / inhibition at 10 µM / inhibition at 30 µM / inhibition at 100 µM: Rattus norvegicus, PMNL, inhibition of MPO release; for inhibition at 1 µM: 1 µM compound; for inhibition at 3 µM: 3 µM compound; for inhibition at 10 µM: 10 µM compound; for inhibition at 30 µM: 30 µM compound; for inhibition at 100 µM: 100 µM compound; for inhibition of release of myeloperoxidase: fMLP with cytochalasin B, opsonized zymosan or ionomycin stimulus, result in words
Procedure: Rat PMNL were obtained from exudates resulting from peritoneal injection of 6 mL of 8% sodium caseinate. Eighteen hours after injection rats were killed by carbon dioxide inhalation and the peritoneal cavity lavaged with Hank's balanced salt solution (HBSS). After concentration of the PMNL by centrifugation, contaminating erythrocytes were removed by hypotonic lysis. The PMNL were then washed twice by centrifugation (400 x g for 10 minutes) and resuspended in HBSS. Cell viability was greater than 90% by Trypan Blue exclusion and greater than 90% of the cells were PMNL by Wright-Giemsa stain.
MPO release was determined using the MPO catalyzed oxidation of o-dianisidine. The experiments were carried out in 96-well microtiter plates (Webster and Henson, 1978). In each well, 50 microliter (µl) aliquots of a PMNL suspension (2 x 10⁷ cells/mL in HBSS) were incubated with 50 µl of HBSS containing vehicle (0.3% DMSO) or inhibitor for 30 minutes at 37°C. The final DMSO concentration never exceeded 0.3% and was constant throughout each experiment. To activate the PMNL, 50 µl of one of the following were added for 30 minutes at 37°C: N-formyl-Met-Leu-Phe (fMLP; 0.1 µM); phorbol myristate acetate (PMA, 200 ng/mL); or rat serum opsonized zymosan (OZ; 2.6 mg/mL, prepared by the method of Ward et al., 1983). The stimuli were added in 50 µl HBSS which also contained the compounds or vehicle, as appropriate, to avoid changing the inhibitor concentration. Cell activation was terminated by centrifugation of the plates at 600 x g for 5 minutes at 22°C. Aliquots (100 µl) of supernatant were removed from each well and transferred to a 96-well flatbottomed microtiter plate for the MPO assay. To each aliquot of supernatant was added 100 µl of a freshly prepared solution containing 50 µl of 0.2 M sodium phosphate buffer (pH 6.2), 25 µl of 3.9 mM o-dianisidine and 25 µl of 0.015 M hydrogen peroxide. Blanks were obtained using the same solution without hydrogen peroxide. The plates were mixed and then incubated at room temperature in the dark for about 15 minutes. Absorbances of the samples were measured at 450 nm.
Rat PMNL were isolated in HBSS containing Ca⁺². As summarized in the figures below, fMLP stimulation of rat PMNL in the presence of cytochalasin B or with opsonized zymosan or with ionomycin results in the release of myeloperoxidase (fMLP/MPO, OZ/MPO, and ION/MPO; columns 2, 4, and 6 respectively).

[1] = test system: Mustard Oil-Induced Mouse Ear Edema; test: Mustard oil-induced mouse ear edema; type: in vivo, Charles River male CD-1 mice; details: ear weight increase after 30 minutes
Procedure: Charles River male CD-1 mice weighing 30-60 grams were divided into randomized groups. They were dosed i.p. for 30 minutes prior or orally 1 hour prior to application of 20 µl of mustard oil (10% isothiocyanate in acetone) to the right ear. After 30 minutes the mice were sacrificed and an 8 millimeter diameter circular punch biopsy of each ear was obtained and weighed. The difference between the left (control) and right (treated) ear weights were expressed as percent increase.

[2] = test system: Carrageenin-Induced Rat Paw Edema; test: Carrageenin-induced rat paw edema; type: in vivo, Charles River male Sprague-Dawley rats; details: one hour prior to paw injection, paw volume three hours after carrageenin, dose not given
Procedure: Charles River male Sprague-Dawley rats weighing 90 to 100 grams were used. Inflammation of the left hind paw was induced by a 1% carrageenin solution (0.05 cc), injected into the plantar surface of the paw. The contralateral paw was injected with an equal volume of saline. Drugs were administered orally or i.p. (1 cc/100 grams) one hour prior to paw injection. Three hours following the carrageenin injection the difference in volume of the control and inflamed paw was measured. Each paw was immersed in a well of mercury and the volume of mercury displaced was recorded. Paws were uniformly dipped into the mercury up to the beginning of the hairline. A venous pressure transducer, coupled to a chart recorder, was employed to measure the small volumes of mercury displaced. Each group measurement consists of the average of four rats, each with three separate measurements.

[3] = fMLP stimulus in the presence of cytochalasin B, read-out: IMLP/MPO
[4] = ionomycin stimulus, read-out: ION/MPO
[5] = opsonized zymosan stimulus, read-out: OZ/MPO
[6] = 10 mg/Kg i.p., 30 minutes prior to mustard oil
[7] = 10 mg/Kg oral, 1 hour prior to mustard oil
[8] = 30 mg/Kg i.p., 30 minutes prior to mustard oil
[9] = 30 mg/Kg oral, 1 hour prior to mustard oil
[10] = 100 mg/Kg i.p., 30 minutes prior to mustard oil
[11] = 100 mg/Kg oral, 1 hour prior to mustard oil

Row | inhibition of release of myeloperoxidase (Rat PMNL) | SMILES | inhibition at 1 µM (Rat PMNL; [3]) [%] | inhibition at 3 µM (Rat PMNL; [3]) [%] | inhibition at 10 µM (Rat PMNL; [3]) [%] | inhibition at 30 µM (Rat PMNL; [3]) [%] | inhibition at 100 µM (Rat PMNL; [3]) [%] | inhibition at 1 µM (Rat PMNL; [4]) [%] | inhibition at 3 µM (Rat PMNL; [4]) [%] | inhibition at 10 µM (Rat PMNL; [4]) [%] | inhibition at 30 µM (Rat PMNL; [4]) [%] | inhibition at 100 µM (Rat PMNL; [4]) [%] | inhibition at 1 µM (Rat PMNL; [5]) [%] | inhibition at 3 µM (Rat PMNL; [5]) [%] | inhibition at 10 µM (Rat PMNL; [5]) [%] | inhibition at 30 µM (Rat PMNL; [5]) [%] | inhibition at 100 µM (Rat PMNL; [5]) [%] | %Inhibition [1, 6] [%] | %Inhibition [1, 7] [%] | %Inhibition [1, 8] [%] | %Inhibition [1, 9] [%] | also measured
1 | dose dependent inhibition | O=C(C#Cc1ccncc1)c1ccccc1 [MDL 101,098, 1-Phenyl-3-(4-pyridinyl)-2-propyne-1-one] | 2.9 | 7.5 | 34.9 | 80.8 | 96.2 | -2.8 | 0 | 5.7 | 12.7 | 88.4 | 5.4 | 14.7 | 48.7 | 92.2 | 97.2 | 38.6 ± 13.1 | 38.5 ± 34.9 | 56.8 ± 6.4 | 6.4 ± 27.7 | %Inhibition [1, 10]: 68.2 ± 5.8%; %Inhibition [1, 11]: 43.9 ± 15.6%; %Inhibition ([2]; i.p.): 64.8%; %Inhibition ([2]; p.o.): 42.4%
2 | dose dependent inhibition | CN(C)c1ccc(C(=O)C#Cc2ccncc2)cc1 [MDL 102,175, 1-(4-Dimethylaminophenyl)-3-(4-pyridinyl)-2-propyne-1-one] | 12.6 | 27.9 | 70.6 | 104 | 113 | 0.8 | 1.5 | 21.3 | 20.5 | 83.4 | 16.9 | 26.6 | 78.5 | 107 | 118 | 38.6 ± 13.1 | 38.5 ± 34.9 | 56.8 ± 6.4 | 6.4 ± 27.7 | %Inhibition [1, 10]: 68.2 ± 5.8%; %Inhibition [1, 11]: 43.9 ± 15.6%; %Inhibition ([2]; i.p.): 73.2%; %Inhibition ([2]; p.o.): 19.8%
